This is an account of results in PubChem BioAssay AID1745844 (Carcinogenic Potency Database (CPDB), 2022).

The subject of the series is rodent lifetime carcinogenesis bioassay, tumor incidence TD50. Briefly: chronic cancer bioassays in animals – CPDB, compiled studies (AID 1745844).

Activity calls are given as the source filed them. How the calls were made is not given here.

As a reminder, the TD50 is the dose at which the toxic effect under study appears in half of the subjects. Consider `NNc1nc(-c2ccccc2)cs1`, for which the TD50 (rat, strain Sprague-Dawley, females, in feed, site: any site (literature study), lesion: several types, types named in the paper, dosed 46 weeks, study length 66 weeks) is 311 mg/kg/day (inactive).

Take `Cc1cccn2c1nc1ccc(N)nc12`: the TD50 (mouse, strain CDF1, females, in feed, site: blood vessels, lesion: hemangioendothelial sarcoma, dosed 67 weeks, study length 67 weeks) is 13.8 mg/kg/day; the TD50 (mouse, strain CDF1, females, in feed, site: blood vessels, lesion: several types, types named in the paper, dosed 67 weeks, study length 67 weeks) is 10.9 mg/kg/day; the TD50 (mouse, strain CDF1, females, in feed, site: liver, lesion: hepatocellular adenoma, dosed 67 weeks, study length 67 weeks) was 44.1 mg/kg/day; the TD50 (mouse, strain CDF1, females, in feed, site: liver, lesion: hepatocellular carcinoma, dosed 67 weeks, study length 67 weeks) turned out to be 18.5 mg/kg/day; the TD50 (mouse, strain CDF1, females, in feed, site: liver, lesion: several types, types named in the paper, dosed 67 weeks, study length 67 weeks) was 5.08 mg/kg/day; the TD50 (mouse, strain CDF1, females, in feed, site: lung, lesion: adenoma, dosed 67 weeks, study length 67 weeks) stood at 166 mg/kg/day. The TD50 is, setting by setting: (mouse, strain CDF1, females, in feed, site: lung, lesion: several types, types named in the paper, dosed 67 weeks, study length 67 weeks) 308 mg/kg/day; (mouse, strain CDF1, males, in feed, site: blood vessels, lesion: hemangioendothelial sarcoma, dosed 57 weeks, study length 57 weeks) 7.81 mg/kg/day; (mouse, strain CDF1, males, in feed, site: blood vessels, lesion: hemangioendothelioma, dosed 57 weeks, study length 57 weeks) 98.7 mg/kg/day; (mouse, strain CDF1, males, in feed, site: blood vessels, lesion: several types, types named in the paper, dosed 57 weeks, study length 57 weeks) 5.77 mg/kg/day; (mouse, strain CDF1, males, in feed, site: liver, lesion: hepatocellular adenoma, dosed 57 weeks, study length 57 weeks) 98.7 mg/kg/day; (mouse, strain CDF1, males, in feed, site: lung, lesion: adenoma, dosed 57 weeks, study length 57 weeks) 1000 mg/kg/day. Moreover, the TD50 was 12.7 mg/kg/day (rat, strain F344/DuCrj, females, in feed, site: Zymbal's gland, lesion: squamous-cell carcinoma, dosed 67 weeks, study length 67 weeks); 95.9 mg/kg/day (rat, strain F344/DuCrj, females, in feed, site: brain, lesion: astrocytoma, dosed 67 weeks, study length 67 weeks); 56.1 mg/kg/day (rat, strain F344/DuCrj, females, in feed, site: clitoral gland, lesion: one or several types, types not named, dosed 67 weeks, study length 67 weeks); 95.9 mg/kg/day (rat, strain F344/DuCrj, females, in feed, site: colon, lesion: adenocarcinoma, dosed 67 weeks, study length 67 weeks); 71 mg/kg/day (rat, strain F344/DuCrj, females, in feed, site: colon, lesion: adenoma, dosed 67 weeks, study length 67 weeks); 39 mg/kg/day (rat, strain F344/DuCrj, females, in feed, site: colon, lesion: several types, types named in the paper, dosed 67 weeks, study length 67 weeks). Further, the TD50 is, setting by setting: (rat, strain F344/DuCrj, females, in feed, site: liver, lesion: several types, types named in the paper, dosed 67 weeks, study length 67 weeks) 8.39 mg/kg/day; (rat, strain F344/DuCrj, females, in feed, site: small intestine, lesion: adenocarcinoma, dosed 67 weeks, study length 67 weeks) 56.1 mg/kg/day; (rat, strain F344/DuCrj, females, in feed, site: small intestine, lesion: adenoma, dosed 67 weeks, study length 67 weeks) 146 mg/kg/day; (rat, strain F344/DuCrj, females, in feed, site: small intestine, lesion: mucinous carcinoma, dosed 67 weeks, study length 67 weeks) 71 mg/kg/day; (rat, strain F344/DuCrj, females, in feed, site: small intestine, lesion: several types, types named in the paper, dosed 67 weeks, study length 67 weeks) 26.1 mg/kg/day; (rat, strain F344/DuCrj, males, in feed, site: Zymbal's gland, lesion: squamous-cell carcinoma, dosed 67 weeks, study length 67 weeks) 10.2 mg/kg/day. Besides, the TD50 (rat, strain F344/DuCrj, males, in feed, site: colon, lesion: adenocarcinoma, dosed 67 weeks, study length 67 weeks) is 16.9 mg/kg/day; the TD50 (rat, strain F344/DuCrj, males, in feed, site: colon, lesion: adenoma, dosed 67 weeks, study length 67 weeks) was 15.4 mg/kg/day; the TD50 (rat, strain F344/DuCrj, males, in feed, site: colon, lesion: several types, types named in the paper, dosed 67 weeks, study length 67 weeks) is 9.45 mg/kg/day; the TD50 (rat, strain F344/DuCrj, males, in feed, site: liver, lesion: several types, types named in the paper, dosed 67 weeks, study length 67 weeks) is 3.25 mg/kg/day; the TD50 (rat, strain F344/DuCrj, males, in feed, site: small intestine, lesion: adenocarcinoma, dosed 67 weeks, study length 67 weeks) is 6.71 mg/kg/day; the TD50 (rat, strain F344/DuCrj, males, in feed, site: small intestine, lesion: adenoma, dosed 67 weeks, study length 67 weeks) was 8.21 mg/kg/day. Besides, the TD50 is, setting by setting: (rat, strain F344/DuCrj, males, in feed, site: small intestine, lesion: mucinous carcinoma, dosed 67 weeks, study length 67 weeks) 236 mg/kg/day; (rat, strain F344/DuCrj, males, in feed, site: small intestine, lesion: several types, types named in the paper, dosed 67 weeks, study length 67 weeks) 5.89 mg/kg/day.

Take `CCCNN`: the TD50 (mouse, strain Swiss albino, females, in drinking water, site: lung, lesion: adenocarcinoma, dosed 99 weeks, study length 99 weeks) was determined as 109 mg/kg/day; the TD50 (mouse, strain Swiss albino, females, in drinking water, site: lung, lesion: adenoma, dosed 99 weeks, study length 99 weeks) stood at 42.7 mg/kg/day; the TD50 (mouse, strain Swiss albino, females, in drinking water, site: lung, lesion: several types, types named in the paper, dosed 99 weeks, study length 99 weeks) is 41.4 mg/kg/day; the TD50 (mouse, strain Swiss albino, males, in drinking water, site: liver, lesion: liver-cell carcinoma, dosed 93 weeks, study length 93 weeks) was 102 mg/kg/day (inactive); the TD50 (mouse, strain Swiss albino, males, in drinking water, site: liver, lesion: several types, types named in the paper, dosed 93 weeks, study length 93 weeks) came to 80.8 mg/kg/day; the TD50 (mouse, strain Swiss albino, males, in drinking water, site: lung, lesion: adenoma, dosed 93 weeks, study length 93 weeks) stood at 41.3 mg/kg/day. In addition, the TD50 (mouse, strain Swiss albino, males, in drinking water, site: lung, lesion: several types, types named in the paper, dosed 93 weeks, study length 93 weeks) was 50.5 mg/kg/day.

`CC(=O)CNCC(O)C(O)N=O` (centres undefined): the TD50 by setting is: (hamster, strain Syrian Golden, females, by gavage, site: forestomach, lesion: several types, types named in the paper, dosed 35 weeks, study length 55 weeks) 0.754 mg/kg/day; (hamster, strain Syrian Golden, females, by gavage, site: forestomach, lesion: squamous-cell papilloma, dosed 35 weeks, study length 55 weeks) 0.868 mg/kg/day; (hamster, strain Syrian Golden, females, by gavage, site: liver, lesion: hepatocellular adenoma, dosed 35 weeks, study length 55 weeks) 9.92 mg/kg/day; (hamster, strain Syrian Golden, females, by gavage, site: liver, lesion: hepatocellular carcinoma, dosed 35 weeks, study length 55 weeks) 20.4 mg/kg/day; (hamster, strain Syrian Golden, females, by gavage, site: liver, lesion: several types, types named in the paper, dosed 35 weeks, study length 55 weeks) 9.92 mg/kg/day; (hamster, strain Syrian Golden, females, by gavage, site: lung, lesion: carcinoma, dosed 35 weeks, study length 55 weeks) 20.4 mg/kg/day. The TD50 by setting is: (hamster, strain Syrian Golden, females, by gavage, site: pancreatic duct, lesion: several types, types named in the paper, dosed 35 weeks, study length 55 weeks) 3.63 mg/kg/day; (rat, strain Fischer 344, females, in drinking water, site: esophagus, lesion: carcinoma, dosed 31 weeks, study length 55 weeks) 0.0637 mg/kg/day; (rat, strain Fischer 344, females, in drinking water, site: esophagus, lesion: several types, types named in the paper, dosed 31 weeks, study length 55 weeks) 0.0352 mg/kg/day; (rat, strain Fischer 344, females, in drinking water, site: forestomach, lesion: carcinoma, dosed 31 weeks, study length 55 weeks) 0.155 mg/kg/day; (rat, strain Fischer 344, females, in drinking water, site: forestomach, lesion: several types, types named in the paper, dosed 31 weeks, study length 55 weeks) 0.0482 mg/kg/day; (rat, strain Fischer 344, females, in drinking water, site: liver, lesion: hepatocellular carcinoma, dosed 31 weeks, study length 55 weeks) 1.3 mg/kg/day (inactive). Moreover, the TD50 was 0.0964 mg/kg/day (rat, strain Fischer 344, females, in drinking water, site: tongue, lesion: carcinoma, dosed 31 weeks, study length 55 weeks) and 0.0555 mg/kg/day (rat, strain Fischer 344, females, in drinking water, site: tongue, lesion: several types, types named in the paper, dosed 31 weeks, study length 55 weeks).

With `O=[N+]([O-])c1ccc(Cl)c([N+](=O)[O-])c1`, the TD50 is, setting by setting: (mouse, strain CD-1 HaM/ICR, females, in feed, site: any site (literature study), lesion: several types, types named in the paper, dosed 77 weeks, study length 94 weeks) 124 mg/kg/day (inactive); (mouse, strain CD-1 HaM/ICR, females, in feed, site: liver, lesion: several types, types named in the paper, dosed 77 weeks, study length 94 weeks) 1520 mg/kg/day (inactive); (mouse, strain CD-1 HaM/ICR, females, in feed, site: lung, lesion: several types, types named in the paper, dosed 77 weeks, study length 94 weeks) 150 mg/kg/day (inactive); (mouse, strain CD-1 HaM/ICR, males, in feed, site: any site (literature study), lesion: several types, types named in the paper, dosed 77 weeks, study length 94 weeks) 255 mg/kg/day (inactive); (mouse, strain CD-1 HaM/ICR, males, in feed, site: liver, lesion: several types, types named in the paper, dosed 77 weeks, study length 94 weeks) 365 mg/kg/day (inactive); (mouse, strain CD-1 HaM/ICR, males, in feed, site: lung, lesion: several types, types named in the paper, dosed 77 weeks, study length 94 weeks) 541 mg/kg/day (inactive). The TD50 (rat, strain Charles River CD (Sprague-Dawley), males, in feed, site: any site (literature study), lesion: several types, types named in the paper, dosed 77 weeks, study length 103 weeks) was 12.3 mg/kg/day (inactive). Besides, the carcinogen call (rat, strain Charles River CD (Sprague-Dawley), males, in feed, site: liver, lesion: several types, types named in the paper, dosed 77 weeks, study length 103 weeks) is “negative (inactive)”.

Consider `CCN(N=O)C(=O)NCCO`, for which the TD50 runs as follows: (hamster, strain Syrian Golden, females, by gavage, site: cervix uteri, lesion: one or several types, types not named, dosed 30 weeks, study length 75 weeks) 1.04 mg/kg/day; (hamster, strain Syrian Golden, females, by gavage, site: forestomach, lesion: benign tumor, dosed 30 weeks, study length 75 weeks) 1.76 mg/kg/day; (hamster, strain Syrian Golden, females, by gavage, site: liver, lesion: cholangioma, dosed 30 weeks, study length 75 weeks) 27.5 mg/kg/day; (hamster, strain Syrian Golden, females, by gavage, site: spleen, lesion: all vascular tumors, dosed 30 weeks, study length 75 weeks) 3.05 mg/kg/day; (rat, strain Fischer 344, females, in drinking water, site: mammary tissue, wider than the gland, lesion: carcinoma, dosed 30 weeks, study length 104 weeks) 0.748 mg/kg/day; (rat, strain Fischer 344, females, in drinking water, site: nervous system, lesion: one or several types, types not named, dosed 30 weeks, study length 104 weeks) 0.714 mg/kg/day. Moreover, the TD50 reads like this: (rat, strain Fischer 344, females, in drinking water, site: skin, lesion: one or several types, types not named, dosed 30 weeks, study length 104 weeks) 0.956 mg/kg/day; (rat, strain Fischer 344, females, in drinking water, site: uterus, lesion: one or several types, types not named, dosed 30 weeks, study length 104 weeks) 0.972 mg/kg/day; (rat, strain Fischer 344, males, in drinking water, site: lung, lesion: one or several types, types not named, dosed 30 weeks, study length 104 weeks) 0.39 mg/kg/day; (rat, strain Fischer 344, males, in drinking water, site: nervous system, lesion: one or several types, types not named, dosed 30 weeks, study length 104 weeks) 0.769 mg/kg/day; (rat, strain Fischer 344, males, in drinking water, site: skin, lesion: one or several types, types not named, dosed 30 weeks, study length 104 weeks) 0.401 mg/kg/day; (rat, strain Fischer 344, males, in drinking water, site: tunica vaginalis, lesion: mesothelioma, dosed 30 weeks, study length 104 weeks) 0.226 mg/kg/day.
